Assay results as given in US20140121258A1, “COMPOUNDS ACT AT MULTIPLE PROSTAGLANDIN RECEPTORS GIVING A GENERAL ANTI-INFLAMMATORY RESPONSE” (ALLERGAN, INC., priority 2010, published 2014).

Assays:
[1] = target: T1, human prostanoid EP4 receptor (Homo sapiens, UniProt P35408); assay: FLIPR Ca2+ signaling antagonist assay, EP4 receptor stable cell line; assay type: cell-based; conditions: HEK-293 EBNA stable cells with chimeric Gqs, standard agonist PGE2; NA = inactive (no antagonism or Kb≧10,000 nM)
T1 construct: expressed in transfected cells
Protocol: (§1) The above compounds were tested for PG antagonist activity as follows using human recombinant prostanoid receptor (DP1, EP1-4, FP, IP and TP) stable cell lines:
(§2) In order to measure the response of Gs and Gi coupled prostanoid receptors as a Ca^2+ signal, chimeric G protein cDNAs were used. Stable cell lines over-expressing human prostanoid DP1, EP1-4, FP, IP, and TP receptors were established as follows:
(§3) Briefly, human prostanoid DP1, EP2, and EP4 receptor cDNAs were co-transfected with chimeric Gqs cDNA containing a haemagglutanin (HA) epitope; human prostanoid EP3 receptors were co-transfected with chimeric Gqi-HA; human EP1, FP, IP, and TP receptor cDNAs were expressed with no exogenous G-proteins. Gqs and Gqi chimeric cDNAs (Molecular Devices, Sunnyvale, Calif., U.S.A.), as well as cDNAs of prostanoid receptors, were cloned into a pCEP4 vector with a hygromycin B selection marker. Transfection into HEK-293 EBNA (Epstein-Barr virus nuclear antigen) cells was achieved by the FuGENE 6 transfection Reagent (Roche Applied Science, Indianapolis, Ind., USA). Stable transfectants were selected according to hygromycin resistance. Because Gqs and Gqi contained an HA epitope, G-protein expression was detected by Western blotting analysis using anti-mouse HA monoclonal antibody and horseradish peroxidase (HRP)-conjugated secondary antibody, while functional expression of prostanoid receptors was detected by FLIPR screening (Matias et al., 2004). These stable cell lines were validated using previously published antagonists at 10 μM against serial dilutions of standard agonists by FLIPR functional assays for Ca^2+ Signaling (as described below).
(§4) Ca^2+ signaling studies were performed using a FLIPR TETRA system (Molecular Devices, Sunnyvale, Calif., USA) in the 384-format. This is a high-throughput instrument for cell-based assays to monitor Ca^2+ signaling associated with GPCRs and ion channels. Cells were seeded at a density of 5×10^4 cells/well in BioCoat poly-D-lysine coated, black wall, clear bottom 384-well plates (BD Biosciences, Franklin lakes, NJ, USA) and allowed to attach overnight in an incubator at 37° C. The cells were then washed twice with HBSS-HEPES buffer (Hanks' balanced salt solution without bicarbonate and phenol red, 20 mM HEPES, pH 7.4) using an ELx405 Select CW Microplate Washer (BioTek, Winooski, Vt., USA). After 60 min of dye-loading in the dark using the Ca^2+-sensitive dye Fluo-4AM (Invitrogen, Carlsbad, Calif., USA), at a final concentration of 2×10^−6M, the plates were washed 4 times with HBSS-HEPES buffer to remove excess dye and leaving 50 μl of buffer in each well. The plates were then placed in the FLIPR TETRA instrument and allowed to equilibrate at 37° C. AGN-211377 was added in a 25 μl volume to each well to give final concentrations of 0.1 μM, 0.3 μM, 1 μM, 3 μM, 10 μM, and 30 μM; or 0.067 μM, 0.1 μM, 0.2 μM, 0.3 μM, 0.67 μM, and 1 μM for cells over-expressing TP receptors. After 4.5 minutes, a 7-point serial dilution of the standard agonist for the corresponding receptor, in a 25 μl volume was injected at the final concentrations from 10^−11M to 10^−5M in 10-fold serial dilution increments for cells expressing human recombinant DP1, EP1, EP2, EP3, EP4, FP, and IP receptors. The dose range for the standard agonist for human recombinant TP receptors was from 10^−12M to 10^−6M. HBSS-HEPES buffer was used as the negative control for the standard agonists. Cells were excited with LED (light emitting diode) excitation at 470-495 nm and emission was measured through an emission filter at 515-575 nm. Assay plates were read for 3.5 minutes using the FLIPR^TETRA. The peak increase in fluorescence intensity was recorded for each well. On each plate, negative controls, dose response of positive controls, and co-treatments of antagonist-agonist for each dose were in triplicates. Standard agonists were as follows: DP=BW 245C, EP1-EP4=PGE2, FP=17-phenyl-PGF2α, IP=Cicaprost, and TP=U-46619. […]

[2] = target: T2, human prostanoid IP receptor (Homo sapiens, UniProt P43119); assay: FLIPR Ca2+ signaling antagonist assay, IP receptor stable cell line; assay type: cell-based; conditions: HEK-293 EBNA stable cells, standard agonist Cicaprost; NA = inactive (no antagonism or Kb≧10,000 nM)
T2 construct: expressed in transfected cells
Protocol: as §1, §2, §3, §4

[3] = target: T3, human prostanoid EP1 receptor (Homo sapiens, UniProt P34995); assay: FLIPR Ca2+ signaling antagonist assay, EP1 receptor stable cell line; assay type: cell-based; conditions: HEK-293 EBNA stable cells, standard agonist PGE2; NA = inactive (no antagonism or Kb≧10,000 nM)
T3 construct: expressed in transfected cells
T3 sequence (P34995 1-402): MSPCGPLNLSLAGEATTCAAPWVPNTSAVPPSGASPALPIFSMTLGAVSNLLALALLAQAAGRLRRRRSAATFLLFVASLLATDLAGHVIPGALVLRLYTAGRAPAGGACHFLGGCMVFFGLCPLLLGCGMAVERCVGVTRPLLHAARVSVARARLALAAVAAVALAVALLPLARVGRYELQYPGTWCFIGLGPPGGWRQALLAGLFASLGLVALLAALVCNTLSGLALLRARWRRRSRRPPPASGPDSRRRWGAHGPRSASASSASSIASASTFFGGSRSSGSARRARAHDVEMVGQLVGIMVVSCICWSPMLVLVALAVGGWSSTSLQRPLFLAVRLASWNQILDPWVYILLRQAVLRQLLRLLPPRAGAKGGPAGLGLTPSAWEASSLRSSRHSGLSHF
Protocol: as §1, §2, §3, §4

[4] = target: T4, human prostanoid TP receptor (Homo sapiens, UniProt P21731); assay: FLIPR Ca2+ signaling antagonist assay, TP receptor stable cell line; assay type: cell-based; conditions: HEK-293 EBNA stable cells, standard agonist U-46619; NA = inactive (no antagonism or Kb≧10,000 nM)
T4 construct: expressed in transfected cells
T4 sequence (P21731 1-343): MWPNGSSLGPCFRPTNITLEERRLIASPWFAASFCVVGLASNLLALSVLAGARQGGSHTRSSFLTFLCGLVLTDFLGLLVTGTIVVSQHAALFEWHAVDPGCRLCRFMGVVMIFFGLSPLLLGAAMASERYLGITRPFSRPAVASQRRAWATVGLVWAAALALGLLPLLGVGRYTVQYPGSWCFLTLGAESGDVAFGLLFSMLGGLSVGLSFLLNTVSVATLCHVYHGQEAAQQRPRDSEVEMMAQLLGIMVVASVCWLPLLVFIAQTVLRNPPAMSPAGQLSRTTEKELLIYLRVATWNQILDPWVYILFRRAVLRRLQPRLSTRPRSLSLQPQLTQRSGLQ
Protocol: as §1, §2, §3, §4

[5] = target: T5, human prostanoid FP receptor (Homo sapiens, UniProt P43088); assay: FLIPR Ca2+ signaling antagonist assay, FP receptor stable cell line; assay type: cell-based; conditions: HEK-293 EBNA stable cells, standard agonist 17-phenyl-PGF2α; NA = inactive (no antagonism or Kb≧10,000 nM)
T5 construct: expressed in transfected cells
Protocol: as §1, §2, §3, §4

[6] = target: T6, human prostanoid DP1 receptor (Homo sapiens, UniProt Q13258); assay: FLIPR Ca2+ signaling antagonist assay, DP1 receptor stable cell line; assay type: cell-based; conditions: HEK-293 EBNA stable cells with chimeric Gqs, standard agonist BW 245C; NA = inactive (no antagonism or Kb≧10,000 nM)
T6 construct: expressed in transfected cells
T6 sequence (Q13258 1-359): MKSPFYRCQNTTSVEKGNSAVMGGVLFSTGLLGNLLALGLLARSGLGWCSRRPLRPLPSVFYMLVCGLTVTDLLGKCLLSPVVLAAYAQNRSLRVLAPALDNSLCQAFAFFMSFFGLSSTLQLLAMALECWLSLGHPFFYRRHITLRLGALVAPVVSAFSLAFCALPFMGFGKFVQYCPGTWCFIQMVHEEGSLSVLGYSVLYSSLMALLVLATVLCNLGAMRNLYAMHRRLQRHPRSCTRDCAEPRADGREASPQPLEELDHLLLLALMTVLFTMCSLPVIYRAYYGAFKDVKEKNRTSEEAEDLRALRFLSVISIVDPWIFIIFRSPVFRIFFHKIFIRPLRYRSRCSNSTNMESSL
Protocol: as §1, §2, §3, §4

[7] = target: T7, human prostanoid EP3 receptor (Homo sapiens, UniProt P43115); assay: FLIPR Ca2+ signaling antagonist assay, EP3 receptor stable cell line; assay type: cell-based; conditions: HEK-293 EBNA stable cells with chimeric Gqi, standard agonist PGE2; NA = inactive (no antagonism or Kb≧10,000 nM)
T7 construct: expressed in transfected cells
T7 sequence (P43115 1-390): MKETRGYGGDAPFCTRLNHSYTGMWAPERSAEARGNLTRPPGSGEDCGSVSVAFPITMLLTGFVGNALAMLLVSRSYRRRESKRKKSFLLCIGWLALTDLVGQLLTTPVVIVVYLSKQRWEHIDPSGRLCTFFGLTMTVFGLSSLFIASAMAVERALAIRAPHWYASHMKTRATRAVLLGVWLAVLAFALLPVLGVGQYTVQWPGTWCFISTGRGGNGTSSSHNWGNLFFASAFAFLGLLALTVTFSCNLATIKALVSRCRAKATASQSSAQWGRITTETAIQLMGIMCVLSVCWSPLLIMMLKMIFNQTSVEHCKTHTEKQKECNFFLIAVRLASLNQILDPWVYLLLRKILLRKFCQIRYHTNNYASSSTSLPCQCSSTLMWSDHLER
Protocol: as §1, §2, §3
Ca^2+ signaling studies were performed using a FLIPR TETRA system (Molecular Devices, Sunnyvale, Calif., USA) in the 384-format. […] Cells were excited with LED (light emitting diode) excitation at 470-495 nm and emission was measured through an emission filter at 515-575 nm. Assay plates were read for 3.5 minutes using the FLIPR^TETRA. The peak increase in fluorescence intensity was recorded for each well. […]

[8] = target: T8, human prostanoid EP2 receptor (Homo sapiens, UniProt P43116); assay: FLIPR Ca2+ signaling antagonist assay, EP2 receptor stable cell line; assay type: cell-based; conditions: HEK-293 EBNA stable cells with chimeric Gqs, standard agonist PGE2; NA = inactive (no antagonism or Kb≧10,000 nM)
T8 construct: expressed in transfected cells
Protocol: as §1, §2, §3, §4

[9] = Allergic conjunctival itch (itch-scratch episodes); assay type: in vivo; conditions: FIGS. 10 and 11, both experiments
Protocol: The compounds of this invention were tested according to the method described in “Characterization of Receptor Subtypes Involved in Prostanoid-Induced Conjunctival Pruritis and Their Role in Mediating Conjunctival Itching”, Vol. 279, No. 1, (JPET)279, 137-142′ 1996 for their efficacy in alleviating itch.

[10] = test system: Dutch-belted pigmented rabbits; assay: Arachidonate induced uveitis, anterior chamber leukocyte infiltration; assay type: in vivo, rabbit; conditions: topical, concentrations of 0.1, 0.3 and 1%; 0.5% sodium arachidonate challenge; FIG. 12
Protocol: The rational for this protocol is to use arachidonate to directly produce ocular anterior segment uveitis, as opposed to using lipopolysaccharide (LPS) to indirectly release arachidonic acid.
Conscious male or female Dutch-belted pigmented rabbits weighing 2.5-3 kg were used for all in vivo slit lamp studies. Four animals were employed per test group. The right eye of each animal receiving 35 μl of topically administered test and the contralateral left eye of each animal receiving 35 μl of topically administered vehicle (t=0 minutes), followed 30 minutes later by treatment with 35 μl of 0.5% sodium arachidonate onto the surface of both eyes (t=30 minutes). Both eyes were examined by slit lamp 60 minutes following sodium arachdionate challenge (t=90 minutes) at 16× magnification under both white light and blue light illumination at an approximate angle of 45° through 1 mm and 5 mm slit widths.
Anterior chamber leukocyte infiltration was measured using a numerical scoring system to estimate cell number per field defined by a 5 mm slit width: 0=no cells per field (no response); 1=1-10 cells per field (mild); 2=11-20 cells per field (moderate); 3=[…] cells per field (severe); 4=>50 cells per filed (florid). Results are reported as the mean score value±S.E.M.

T5 sequence (P43088 whole entry): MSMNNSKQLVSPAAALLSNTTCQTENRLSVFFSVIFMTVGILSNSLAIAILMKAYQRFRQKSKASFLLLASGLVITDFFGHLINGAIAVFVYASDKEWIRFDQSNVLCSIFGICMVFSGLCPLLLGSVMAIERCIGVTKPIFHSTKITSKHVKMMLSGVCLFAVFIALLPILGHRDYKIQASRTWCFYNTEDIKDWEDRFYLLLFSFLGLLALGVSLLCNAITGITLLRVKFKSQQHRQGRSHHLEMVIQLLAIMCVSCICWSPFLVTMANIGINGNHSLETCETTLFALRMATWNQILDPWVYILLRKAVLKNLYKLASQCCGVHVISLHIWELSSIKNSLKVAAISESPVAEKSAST
T1 sequence (P35408 whole entry): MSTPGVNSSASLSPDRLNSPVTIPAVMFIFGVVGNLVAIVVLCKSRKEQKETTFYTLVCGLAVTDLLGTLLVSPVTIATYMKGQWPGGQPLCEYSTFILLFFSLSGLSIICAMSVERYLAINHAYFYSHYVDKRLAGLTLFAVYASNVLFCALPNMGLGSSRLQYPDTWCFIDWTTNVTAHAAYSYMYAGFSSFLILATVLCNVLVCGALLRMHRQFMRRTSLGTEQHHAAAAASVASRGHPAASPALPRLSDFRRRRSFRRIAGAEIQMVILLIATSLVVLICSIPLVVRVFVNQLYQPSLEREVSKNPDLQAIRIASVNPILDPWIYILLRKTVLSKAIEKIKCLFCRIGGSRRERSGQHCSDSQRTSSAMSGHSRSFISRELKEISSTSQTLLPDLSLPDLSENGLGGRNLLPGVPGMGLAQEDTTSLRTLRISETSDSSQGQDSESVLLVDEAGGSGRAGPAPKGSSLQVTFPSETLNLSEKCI
T8 sequence (P43116 whole entry): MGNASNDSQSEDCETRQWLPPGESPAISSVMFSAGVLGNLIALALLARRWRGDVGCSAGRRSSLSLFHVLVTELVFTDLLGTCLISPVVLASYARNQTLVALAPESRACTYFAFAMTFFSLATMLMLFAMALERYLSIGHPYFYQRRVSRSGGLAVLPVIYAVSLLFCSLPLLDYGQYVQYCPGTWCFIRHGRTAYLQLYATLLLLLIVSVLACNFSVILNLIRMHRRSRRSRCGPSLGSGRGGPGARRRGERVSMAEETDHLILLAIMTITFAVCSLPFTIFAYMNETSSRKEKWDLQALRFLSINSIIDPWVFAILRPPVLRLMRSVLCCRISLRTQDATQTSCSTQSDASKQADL
T2 sequence (P43119 whole entry): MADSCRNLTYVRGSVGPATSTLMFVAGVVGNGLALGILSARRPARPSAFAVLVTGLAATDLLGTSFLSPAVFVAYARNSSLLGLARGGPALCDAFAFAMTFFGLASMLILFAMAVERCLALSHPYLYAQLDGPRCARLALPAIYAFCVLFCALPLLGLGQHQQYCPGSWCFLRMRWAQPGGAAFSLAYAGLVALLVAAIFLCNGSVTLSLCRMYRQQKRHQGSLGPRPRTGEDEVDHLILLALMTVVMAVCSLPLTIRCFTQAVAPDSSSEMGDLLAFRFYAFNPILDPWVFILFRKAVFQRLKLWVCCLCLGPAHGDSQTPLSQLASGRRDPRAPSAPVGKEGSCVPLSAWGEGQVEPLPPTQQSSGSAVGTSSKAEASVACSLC

Kb [1] [nM] | Kb [2] [nM] | Kb [3] [nM] | Kb [4] [nM] | Kb [5] [nM] | Kb [6] [nM] | Kb [7] [nM] | Kb [8] [nM] | Structure (SMILES) | number of itch-scratch episodes [9] | effect in model for uveitis (anterior chamber leukocyte infiltration score) [10]
150 | 620 | 22 | 12 | 140 | 280 | 1400 | 3100 | Cc1cc(CCC(=O)NS(=O)(=O)C(F)(F)F)nn1Cc1cc(Cl)ccc1OCc1ccc(Cl)cc1 [Example 1, N-(3-{1-[5-Chloro-2-(4-Chloro-Benzyloxy)-Benzyl]-5-Methyl-1H-Pyrazol-3-yl}-Propionyl)-C,C,C-Trifluoromethanesulfonamide] |  | 
120 | 1600 | 24 | 30 | 75 | 240 | 7800 | 1200 | Cc1cc(CCC(=O)O)nn1Cc1cc(Br)ccc1OCC1CCCC1 [Example 4, 3-[1-(5-Bromo-2-cyclopentylmethoxybenzyl)-5-methyl-1H-pyrazol-3-yl]-propionic acid] |  | 
180 | 1200 | 80 | 3 | 110 | 280 |  | 4500 | Cc1cc(CCC(=O)O)nn1Cc1cc(Cl)ccc1OCC1CCCC1 [Example 4a, 3-[1-(5-Chloro-2-cyclopentylmethoxybenzyl)-5-methyl-1H-pyrazol-3-yl]-propionic acid] |  | 
240 | 6800 | 24 | 7 | 63 | 220 |  | 3400 | Cc1cc(CCC(=O)O)nn1Cc1cc(C(F)(F)F)ccc1OCC1CCCC1 [Example 5, 3-[1-(2-Cyclopentylmethoxy-5-trifluoromethylbenzyl)-5-methyl-1H-pyrazol-3-yl]-propionic acid] |  | 

Structure (SMILES) | Kb [1] [nM] | Kb [2] [nM] | Kb [3] [nM] | Kb [4] [nM] | Kb [5] [nM] | Kb [6] [nM] | Kb [7] [nM] | Kb [8] [nM] | number of itch-scratch episodes [9] | effect in model for uveitis (anterior chamber leukocyte infiltration score) [10]
CCC(CC)COc1ccc(Br)cc1Cn1nc(CCC(=O)O)cc1C [Example 3, 3-{1-[5-Bromo-2-(2-ethyl-butoxy)-benzyl]-5-methyl-1H-pyrazol-3-yl}-propionic acid] | 85 | 1600 | 40 | 9 | 75 | 140 |  | 2300 | significantly lower number of itch-scratch episodes | dose dependent response
CCC(CC)COc1ccc(Cl)cc1Cn1nc(CCC(=O)O)cc1C [Example 3a, 3-{1-[5-Chloro-2-(2-ethyl-butoxy)-benzyl]-5-methyl-1H-pyrazol-3-yl}-propionic acid] | 68 | 1100 | 71 | 5 | 180 | 220 | 7100 | 2900 | significantly lower number of itch-scratch episodes | dose dependent response
